Several values for one entry are separate records, joined by “and”; a condition that tells them apart may be missing. Identical values can stand only once.
Tests used:
E-RFC = experiment: Increase in no. E-RFC in vitro after incubation with L-Glu-L-Trp (breast cancer patients); assay type: cell-based, human
Method: Thirty six patients with breast cancer were treated with conventional radiation therapy (i.e., single doses of about 2-3 Gy daily for 10 days; total cumulative patient dose of 20-30 Gy). Following radiotherapy the patients were treated with L-Glu-L-Trp by injection of daily dosages im of 100 μg. The patients had been previously treated with radiation therapy (single doses 2 Gy; total dose 20-30 Gy).
Ram erythrocytes (E) were washed 4× in saline (2000 rpm/10 min.) and suspended at a final concentration of 1% in Medium 199. For determinations of the percentage of E-rosette forming T-lymphocytes (E-RFC) in a sample, 0.1 mL of a prepared lymphocyte suspension (2.5×10^6/ml) was incubated with 0.1 mL of the 1% ram erythrocyte suspension at 37° C. for 10 min., centrifuged at 800-1000 rpm for 5 min., maintained at 4° C. for 2 hrs., and finally resuspended and counted in a Goryaev chamber. Activated T-lymphocytes (i.e., having increased E-RFC capacity) were determined by mixing the test lymphocyte suspension with E, immediately centrifuging for 5 min. at 800-1000 rpm, resuspending the cells and counting the rosettes formed in a Goryaev chamber.

[1] = test system: respiratory viral infections; experiment: Nose, ear and throat infections (acute respiratory disease); parameters: species or system human; conditions: in vivo
Method: One hundred eighty six subjects (186) with diagnosed acute respiratory disease, including upper airway diseases and viral infections, were treated with L-Glu-L-Trp. A control group consisted of 87 untreated subjects. L-Glu-L-Trp was administered daily im or intranasally at a dosage of 100 μg on each of 3-7 consecutive days. […] Secondary infectious complications were diminished in the treated individuals, and the length of time that medical follow-up was required was also diminished.

[2] = Influenza symptoms and sinusitis (Protocol F); assay type: in vivo, human
Method: Summary Overview: Fifty-one patients (51) were treated daily for 3-10 days with either 100 μg L-Glu-L-Trp administered im, or 1 μg/kg administered intranasally. A control group of 24 similar patients remained untreated.

Gingivitis = experiment: Gingivitis; parameters: species or system human; conditions: in vivo
Method: Patients were treated for gingival disease by subcutaneous administration of L-Glu-L-Trp into the area of the gingiva. […] Approximately 160 patients were studied, 80 patients were treated with L-Glu-L-Trp and an equal number were treated using conventional therapy (control). […] Normalization of immunologic indices and coagulation in the L-Glu-L-Trp treated patients was correlated with favorable clinical outcome.

T-lymphocyte function = experiment: Naval specialists with occupational immunologic impairments; assay type: in vivo, human; conditions: 3 daily intranasal doses of 100 mcg
Method: A clinical trial was conducted of 152 naval specialists (aged 20-40 years) with evidence of occupational immunologic impairments resulting from their exposure to radiation and occupational toxins in the Kosomolets nuclear submarine sinking off the coast of […]. L-Glu-L-Trp was evaluated for its possible effects on cellular and/or humoral immunity. Approximately 87% of the servicemen entered into the trial had moderate to severely impaired T-lymphocyte functional activity, (i.e., evidenced by decreased LMIR and blastogenesis with Con-A) and reduced neutrophil phagocytic activity (i.e., 30-40% of normal). Immune parameters were determined before and after a routine 21-24 day rest period, during a normal rest/recuperation and training rotation. Servicemen were divided into two groups, the first (control) group received no treatment, and the second (experimental) group of 88 servicemen received three consecutive daily intranasal doses of 100 mcg L-Glu-L-Trp.

Plasmodium falciparum = experiment: Relapsing tropical malaria; assay type: in vivo, human; parameters: IgG / IgA / IgM: unit not given here
[3] = test system: E-receptors on aged thymocytes; experiment: Expression of E-receptors on aged thymocytes; assay type: cell-based, guinea pigs; conditions: for E-RFC (%): aged thymocytes
Excerpt: Effects of L-Glu-L-Trp on expression of E-receptors on “aged” thymocytes was investigated in a manner similar to that in EXAMPLE 26, above, but using thymocytes obtained from old male guinea pigs (700-800 g). In aged animals it is recognized that the percentage of thymocytes forming rosettes with rabbit erythrocytes is reduced, and cell surface E-receptors are likewise reduced. For these studies aged thymocytes were isolated in Medium 199 from 42 guinea pigs, and E-RFC determined as described by Stadecker, M. J., et al., J. Immunol. 111(8):4061-4065 (1973), incorporated herein by reference. L-Glu-L-Trp was dissolved in 0.9% (w/v) NaCl and added to cultures of thymocytes at concentrations of 1, 0.01, and 0.0001 mg/ml.

[4] = test system: resident peritoneal macrophages; experiment: Innate immunity in CBA mice: thymic and spleen mass, splenic lymphocytes, resident peritoneal macrophages; assay type: in vivo; conditions: for Spleen / Thymus: CBA mice; for NBT Reduction, Induced: macrophages induced with complement opsonized zymosan; for NBT Reduction, Spontaneous / Neutral Red Uptake Absorbance: resident peritoneal macrophages
[5] = malaria, after L-Glu-L-Trp Therapy (n = 33)

## L-Glu-L-Trp
E-RFC; cells taken After L-Glu-L-Trp therapy
  Increase in no. E-RFC in vitro after incubation with L-Glu-L-Trp: 1.27 ± 0.14
E-RFC; cells taken After Radiotherapy
  Increase in no. E-RFC in vitro after incubation with L-Glu-L-Trp: 1.19 ± 0.13
E-RFC; cells taken Before Radiotherapy
  Increase in no. E-RFC in vitro after incubation with L-Glu-L-Trp: 1.23 ± 0.15
[1]
  Clinical outcome: milder course of respiratory viral infections
[2]; in vivo
  Clinical outcome: reduced nasal mucous swelling, normalization of breathing
[2]; vs control group
  Decrease of total duration of patient treatment: up to 1.7 fold
Gingivitis
  Clinical outcome: arrest of gingival disease
T-lymphocyte function
  T-lymphocyte function, T4/T8 ratio, granulocyte lysosomal cation proteins: pronounced increase
Plasmodium falciparum; in vivo
  Clinical outcome: decreased incidence of disease relapses
  FDP and ATIII levels: the levels of FDP decreased and ATIII increased
  PBL and T- and B-lymphocyte counts: increased PBL and T- and B-lymphocyte counts to normal or supra-normal values
Plasmodium falciparum; [5]
  ATIII (%): 98 ± 1.38%
  B-Lymphocytes: 0.53 ± 0.02 ×10^9/L
  B-Lymphocytes % Normal Value: (115%)
  Clotting time (whole blood): 141 ± 2.4^
  FDP: 23 ± 1.8 µg/mL
  Fibrinogen Concentration: 3.4 ± 0.1 g/L
  Hagemann factor dependent fibrinolysis: 25 ± 2.58
  IgA: 138 ± 6.0
  IgA % Normal Value: (140%)
  IgG: 187 ± 1.9
  IgG % Normal Value: (140%)
  IgM: 193 ± 9.0
  IgM % Normal Value: (152%)
  Kaolin clotting time: 58 ± 0.3
  Leukocytes: 9.0 ± 0.14 ×10^9/L
  Leukocytes % Normal Value: (155%)
  Lymphocytes: 2.57 ± 0.09 ×10^9/L
  Lymphocytes % Normal Value: (148%)
  PTT: 23 ± 0.2
  T-Lymphocytes: 0.94 ± 0.06 ×10^9/L
  T-Lymphocytes % Normal Value: (106%)
  Thrombotest: 33 ± 0.5
  Total Fibrinogen: 200 ± 2.7^
[3]; 1 mg/mL
  Percentage of E-RFC: statistically significant increase in the percentage of E-RFC
[3]; Conc. 0.0001 mg/ml
  E-RFC (%): 50.3 ± 4.2%
[3]; Conc. 0.01 mg/ml
  E-RFC (%): 47.8 ± 3.9%
[3]; Conc. 1 mg/ml
  E-RFC (%): 54.6 ± 4.2 %
[4]; 0.01 mg/kg ip daily 6 days
  B cells Change (% peptide treated/% control): 1.0
  Splenic lymphocytes: B cells (%): 50.8 ± 3.0%
  Splenic lymphocytes: T cells (%): 41.2 ± 2.1 %
  T cells Change (% peptide treated/% control): ↑ 1.1
  Spleen: 69.8 ± 2.6 mg
  Thymus: 14.8 ± 1.6 mg
[4]; 0.01 mg/kg, not statistically different from control
  Increase in neutral red uptake by macrophages: 75%
[4]; 1 mg/kg and 0.01 mg/kg ip, 6 days
  Thymic weight: statistically significant decrease in thymic weight at both dosages
[4]; 1.0 mg/kg ip daily 6 days
  B cells Change (% peptide treated/% control): 1.0
  Splenic lymphocytes: B cells (%): 52.4 ± 1.71%
  Splenic lymphocytes: T cells (%): 34.8 ± 2.5%
  T cells Change (% peptide treated/% control): ↓ 0.9
  Spleen: 88.4 ± 4.4 mg
  Thymus: 14.1 ± 1.3 mg
[4]; macrophages from treated animals
  Increase in NBT reducing activity on induction with complement-opsonized zymosan: 1.75 fold and 2 fold
[4]; 0.01 mg/kg
  NBT Reduction, Induced: 0.205 ± 0.012 OD540
  NBT Reduction, Spontaneous: 0.101 ± 0.002 OD540
  Neutral Red Uptake Absorbance: 0.604 ± 0.031
[4]; 1 mg/kg
  NBT Reduction, Induced: 0.116 ± 0.008 OD540
  NBT Reduction, Spontaneous: 0.059 ± 0.003 OD540
  Neutral Red Uptake Absorbance: 0.469 ± 0.016

From patent publication US6368788B1 (priority 1987, dated 2002)
